Measured values published in US20230089073A1 (Carmot Therapeutics, Inc., priority 2021, published 2023).

What follows are molecules tested against T1, human GLP-1 receptor (Homo sapiens, UniProt P43220) (assay: GLP-1R cAMP Assay). Settings: cAMP accumulation in CHO cells stably overexpressing the human GLP-1 receptor; 30 min treatment; HitHunter cAMP kit; read-out: EC50.
T1 construct: expressed in transfected cells
Type: cell-based
Summary of the method: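 CHO cells stably overexpressing human GLP-1R, 10,000 cells/well, treated with compound in 20-point dose response in triplicate for 30 min. cAMP accumulation read by enzyme-complementation luminescence after lysis and overnight incubation; dose-response curves fitted.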

T1 sequence (P43220 24-463): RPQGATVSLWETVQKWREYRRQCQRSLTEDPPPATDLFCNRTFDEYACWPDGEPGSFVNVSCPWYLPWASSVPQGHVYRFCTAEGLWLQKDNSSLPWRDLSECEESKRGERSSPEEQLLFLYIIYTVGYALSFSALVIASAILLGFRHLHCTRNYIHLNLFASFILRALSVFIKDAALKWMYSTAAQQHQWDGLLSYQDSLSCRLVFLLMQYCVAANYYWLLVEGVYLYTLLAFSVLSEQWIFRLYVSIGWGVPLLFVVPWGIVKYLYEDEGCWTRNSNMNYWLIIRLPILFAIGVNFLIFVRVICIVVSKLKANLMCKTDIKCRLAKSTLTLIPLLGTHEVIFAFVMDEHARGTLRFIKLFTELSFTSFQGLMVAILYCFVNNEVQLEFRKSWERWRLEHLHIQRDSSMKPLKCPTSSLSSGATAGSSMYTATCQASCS

EC50 [nM]	Compound
< 50	C[C@H]1C[C@H](Oc2cccc(COc3ccc(Cl)cc3F)n2)CCN1Cc1nc2ccc(C(=O)O)cc2n1C[C@@H]1CCO1 [Compound 290, 2-{[(2S,4R)-4-({6-[(4-chloro-2-fluorophenoxy)methyl]pyridin-2-yl}oxy)-2-methylpiperidin-1-yl]methyl}-1-{[(2S)-oxetan-2-yl]methyl}-1H-1,3-benzodiazole-6-carboxylic acid]
< 50	O=C(O)c1ccc2nc(CN3CCC(Oc4ccnc(COc5ccc(F)cc5C(F)(F)F)c4)CC3)n(C[C@@H]3CCO3)c2c1 [Compound 322]
< 50	N#Cc1cc(F)ccc1OCc1cccc(OC2CCN(Cc3nc4ccc(C(=O)O)cc4n3C[C@@H]3CCO3)CC2)c1 [Example 206, (S)-2-((4-(3-((2-Cyano-4-fluorophenoxy)methyl)phenoxy)piperidin-1-yl)methyl)-1-(oxetan-2-ylmethyl)-1H-benzo[d]imidazole-6-carboxylic acid]
< 50	O=C(O)c1ccc2nc(CN3CCC(Oc4ccnc(COc5ccc(F)cc5Cl)n4)CC3)n(C[C@@H]3CCO3)c2n1 [Compound 370]
< 50	N#Cc1ccc(OCc2cccc(OC3CCN(Cc4nc5c(F)cc(C(=O)O)cc5n4C[C@@H]4CCO4)CC3)c2)c(F)c1 [Compound 309]
> 500	O=C(O)c1ccc2nc(CN3CCC(Oc4cccc(COc5ncc(Cl)cc5F)c4)CC3)n(C[C@@H]3CCO3)c2c1 [Compound 288, 2-{[4-(3-{[(5-chloro-3-fluoropyridin-2-yl)oxy]methyl}phenoxy)piperidin-1-yl]methyl}-1-{[(2S)-oxetan-2-yl]methyl}-1H-1,3-benzodiazole-6-carboxylic acid]
< 50	O=C(O)c1ccc2nc(CN3CCC(Oc4ccnc(COc5ccc(Cl)cc5F)c4)CC3)n(C[C@@H]3CCO3)c2c1 [Compound 250, 2-{[4-({2-[(4-chloro-2-fluorophenoxy)methyl]pyridin-4-yl}oxy)piperidin-1-yl]methyl}-1-{[(2S)-oxetan-2-yl]methyl}-1H-1,3-benzodiazole-6-carboxylic acid]
< 50	N#Cc1cc(F)c(OCc2nccc(OC3CCN(Cc4nc5ccc(C(=O)O)cc5n4C[C@@H]4CCO4)CC3)n2)cc1F [Example 498, (S)-2-((4-((2-((4-Cyano-2,5-difluorophenoxy)methyl)pyrimidin-4-yl)oxy)piperidin-1-yl)methyl)-1-(oxetan-2-ylmethyl)-1H-benzo[d]imidazole-6-carboxylic acid]
< 50	N#CCC1(Cn2c(CN3CCC(Oc4ccnc(COc5ccc(F)cc5Cl)n4)CC3)nc3ccc(C(=O)O)cc32)CC1 [Compound 325]
< 50	O=C(O)c1cc(F)c2nc(CN3CCC(Oc4ccnc(COc5ccc(Cl)cc5F)n4)CC3)n(C[C@@H]3CCO3)c2c1 [Compound 315]
< 50	N#CCC1(Cn2c(CN3CCC(Oc4ccnc(COc5ccc(C(F)F)cc5F)c4)CC3)nc3ccc(C(=O)O)cc32)CC1 [Compound 362]
< 50	O=C(O)c1ccc2nc(CN3CCC(Cc4ccc(COc5ccc(Cl)cc5Cl)o4)CC3)n(C[C@@H]3CCO3)c2c1 [Example 72, (S)-2-((4-((5-((2,4-Dichlorophenoxy)methyl)furan-2-yl)methyl)piperidin-1-yl)methyl)-1-(oxetan-2-ylmethyl)-1H-benzo[d]imidazole-6-carboxylic acid]
< 50	O=C(O)c1ccc2nc(CN3CCC(Oc4ccnc(COc5ncc(Cl)cc5F)c4)CC3)n(C[C@@H]3CCO3)c2c1 [Compound 308]
< 50	O=C(O)c1ccc2nc(CN3CCC(Oc4ccnc(COc5ccc(C(F)F)cc5F)n4)CC3)n(C[C@@H]3CCO3)c2c1 [Compound 311]
< 50	O=C(O)c1ccc2nc(CN3CCC(Oc4ccnc(COc5ccc(Cl)cc5F)c4)CC3)n(C[C@@H]3CCO3)c2n1 [Compound 378]

More lines, now with the values behind:

Compound	EC50 [nM]
N#Cc1cc(C2CC2)ccc1OCc1nccc(OC2CCN(Cc3nc4c(F)cc(C(=O)O)cc4n3C[C@@H]3CCO3)CC2)n1 [Compound 508, (S)-2-((4-((2-((2-cyano-4-cyclopropylphenoxy)methyl)pyrimidin-4-yl)oxy)piperidin-1-yl)methyl)-4-fluoro-1-(oxetan-2-ylmethyl)-1H-benzo[d]imidazole-6-carboxylic acid]	< 50
N#CCC1(Cn2c(CN3CCC(Oc4ccnc(COc5ccc(C#N)cc5F)n4)CC3)nc3ccc(C(=O)O)cc32)CC1 [Compound 331]	< 50
N#Cc1ccc(OCc2cccc(OC3CCN(Cc4nc5c(F)cc(C(=O)O)cc5n4CC4(CF)CC4)CC3)c2)c(F)c1 [Example 300, 2-((4-(3-((4-Cyano-2-fluorophenoxy)methyl)phenoxy)piperidin-1-yl)methyl)-4-fluoro-1-((1-(fluoromethyl)cyclopropyl)methyl)-1H-benzo[d]imidazole-6-carboxylic acid]	< 50
CCn1cncc1Cn1c(CN2CCC(C(O)c3cccc(COc4ccc(C)cc4Cl)c3)CC2)nc2ccc(C(=O)O)cc21 (racemic) [Example 130, 2-((4-((3-((2-Chloro-4-methylphenoxy)methyl)phenyl)(hydroxy)methyl)piperidin-1-yl)methyl)-1-((1-ethyl-1H-imidazol-5-yl)methyl)-1H-benzo[d]imidazole-6-carboxylic acid]	< 50
O=C(O)c1ccc2nc(CN3CCC(Cc4cccc(COc5ccc(Cl)cc5Cl)c4)CC3)n(C[C@@H]3CCCO3)c2c1 [Compound 151, 2-{[4-({3-[(2,4-dichlorophenoxy)methyl]phenyl}methyl)piperidin-1-yl]methyl}-1-{[(2S)-oxolan-2-yl]methyl}-1H-1,3-benzodiazole-6-carboxylic acid]	< 50
C[C@H]1C[C@@H](Oc2nc(COc3ccc(F)cc3C#N)ncc2F)CCN1Cc1nc2ccc(C(=O)O)cc2n1C[C@@H]1CCO1 [Compound 492, 2-{[(2S,4S)-4-({2-[(2-cyano-4-fluorophenoxy)methyl]-5-fluoropyrimidin-4-yl}oxy)-2-methylpiperidin-1-yl]methyl}-1-{[(2S)-oxetan-2-yl]methyl}-1H-1,3-benzodiazole-6-carboxylic acid]	< 50
CCn1cncc1Cn1c(CN2CCN(C(=O)c3cccc(Oc4ccc(C)cc4Cl)c3)CC2)nc2ccc(C(=O)O)cc21 [Example 57, 2-((4-(3-(2-Chloro-4-methylphenoxy)benzoyl)piperazin-1-yl)methyl)-1-((1-ethyl-1H-imidazol-5-yl)methyl)-1H-benzo[d]imidazole-6-carboxylic acid]	50 to 500
Cc1ccc(NCc2cccc(C(=O)N3CCN(Cc4nc5ccc(C(=O)O)cc5n4C[C@@H]4CCO4)CC3)c2)c(Cl)c1 [Compound 80, 2-{[4-(3-{[(2-chloro-4-methylphenyl)amino]methyl}benzoyl)piperazin-1-yl]methyl}-1-{[(2S)-oxetan-2-yl]methyl}-1H-1,3-benzodiazole-6-carboxylic acid]	> 500
CCn1cncc1Cn1c(CN2CCN(C(=O)c3ccc(COc4ccc(Cl)cc4Cl)o3)CC2)nc2ccc(C(=O)O)cc21 [Compound 47, 2-[(4-{5-[(2,4-dichlorophenoxy)methyl]furan-2-carbonyl}piperazin-1-yl)methyl]-1-[(1-ethyl-1H-imidazol-5-yl)methyl]-1H-1,3-benzodiazole-6-carboxylic acid]	< 50
Cc1cc(C(C)C)ccc1Oc1cccc(C(=O)N2CCN(Cc3nc4ccc(C(=O)O)cc4n3C[C@@H]3CCO3)CC2)c1 [Example 89, (S)-2-((4-(3-(4-Isopropyl-2-methylphenoxy)benzoyl)piperazin-1-yl)methyl)-1-(oxetan-2-ylmethyl)-1H-benzo[d]imidazole-6-carboxylic acid]	50 to 500
O=C(O)c1ccc2nc(CN3CCN(C(=O)c4cccc(Oc5cc(Cl)ccc5F)c4)CC3)n(C[C@@H]3CCO3)c2c1 [Compound 12, 2-({4-[3-(5-chloro-2-fluorophenoxy)benzoyl]piperazin-1-yl}methyl)-1-{[(2S)-oxetan-2-yl]methyl}-1H-1,3-benzodiazole-6-carboxylic acid]	> 500
N#Cc1ccc(OCc2cccc(OC3CCN(Cc4nc5ccc(C(=O)O)nc5n4C[C@@H]4CCO4)CC3)n2)c(F)c1 [Example 372, (S)-2-((4-((6-((4-Cyano-2-fluorophenoxy)methyl)pyridin-2-yl)oxy)piperidin-1-yl)methyl)-3-(oxetan-2-ylmethyl)-3H-imidazo[4,5-b]pyridine-5-carboxylic acid]	< 50
Cc1c(Cl)cccc1OCc1ccc(C(=O)N2CCN(Cc3nc4ccc(C(=O)O)cc4n3C[C@@H]3CCO3)CC2)o1 [Example 19, (S)-2-((4-(5-((3-Chloro-2-methylphenoxy)methyl)furan-2-carbonyl)piperazin-1-yl)methyl)-1-(oxetan-2-ylmethyl)-1H-benzo[d]imidazole-6-carboxylic acid]	50 to 500
C[C@H]1C[C@@H](Oc2ccnc(COc3ccc(C(F)(F)F)cc3F)n2)CCN1Cc1nc2ccc(C(=O)O)nc2n1C[C@@H]1CCO1 [Compound 377]	< 50
N#CCC1(Cn2c(CN3CCC(Oc4ccnc(COc5ccc(C#N)cc5F)n4)CC3)nc3c(F)cc(C(=O)O)cc32)CC1 [Compound 339]	< 50
O=C(O)c1ccc2nc(CN3CCc4[nH]c5ccc(OCc6ccc(Cl)cc6Cl)cc5c4C3)n(C[C@@H]3CCO3)c2c1 [Compound 142, 2-({8-[(2,4-dichlorophenyl)methoxy]-1H,2H,3H,4H,5H-pyrido[4,3-b]indol-2-yl}methyl)-1-{[(2S)-oxetan-2-yl]methyl}-1H-1,3-benzodiazole-6-carboxylic acid]	> 500
CCn1cncc1Cn1c(CN2CCC(Oc3cccnc3COc3ccc(Cl)cc3Cl)CC2)nc2ccc(C(=O)O)cc21 [Example 271, 2-((4-((2-((2,4-Dichlorophenoxy)methyl)pyridin-3-yl)oxy)piperidin-1-yl)methyl)-1-((1-ethyl-1H-imidazol-5-yl)methyl)-1H-benzo[d]imidazole-6-carboxylic acid]	50 to 500
